We go through two compounds from ChEMBL document CHEMBL1145312, “Structure-activity relationships of triazolopyridine oxazole p38 inhibitors: identification of candidates for clinical development” (Bioorg Med Chem Lett, 2006).

In brackets after ≈: the same amount, converted by molar mass. Bounds are passed on as bounds.

Data set [1] is described as follows: Solubility in PBS buffer at ph 6.5. In kind it is physicochemical.
The next data set deals with Monocyte. The data set is described as follows: Inhibition of LPS-induced TNFalpha production in human monocytes. In kind it is functional, cell-based.
Data set [2] addresses T1, hERG (KCNH2) (Homo sapiens, UniProt Q12809). Briefly: Inhibition of hERG channel current in HEK293 cells at 3 uM. The data set is classed as toxicity, cell-based. The settings on record: HEK293 cells that express hERG. (hERG is a cardiac potassium channel; its block is linked to QT prolongation.)
Data set [3] has as its system Rattus norvegicus. Briefly: Inhibition of LPS-induced TNFalpha release in rat at 3 mg/kg. In kind it is functional.
Data set [4] deals with T2, Mitogen-activated protein kinase 12 (Homo sapiens, UniProt P53778).
T2 sequence (P53778 whole entry): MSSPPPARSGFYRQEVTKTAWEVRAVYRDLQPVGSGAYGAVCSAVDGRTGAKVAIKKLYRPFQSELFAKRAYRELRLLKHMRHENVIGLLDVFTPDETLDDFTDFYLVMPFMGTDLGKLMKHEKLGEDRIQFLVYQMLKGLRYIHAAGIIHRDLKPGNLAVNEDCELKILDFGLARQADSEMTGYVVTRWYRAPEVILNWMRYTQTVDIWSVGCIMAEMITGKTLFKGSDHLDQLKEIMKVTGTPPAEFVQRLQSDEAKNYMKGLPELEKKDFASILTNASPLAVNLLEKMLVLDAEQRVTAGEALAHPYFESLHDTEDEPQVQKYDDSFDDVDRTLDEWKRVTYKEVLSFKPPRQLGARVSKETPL
The data set is described as follows: Inhibition of p38-gamma.

Data set [5] concerns the target Dual specificity mitogen-activated protein kinase kinase 1 (Homo sapiens, UniProt Q02750). Briefly: Inhibition of MKK1.
Data set [6] has as its target Mitogen-activated protein kinase 14 (Homo sapiens, UniProt Q16539). Briefly: Inhibition of p38alpha.
The species entered for the next data set is Homo sapiens. The data set is described as follows: Inhibition of LPS-induced TNFalpha production in human whole blood. In kind it is functional, organism-based.
Data set [7] addresses c-Jun N-terminal kinase, JNK (Homo sapiens, UniProt P45983+P53779+P45984). The data set is described as follows: Inhibition of JNK. In kind it is protein assay.
Data set [8] concerns the target Ribosomal protein S6 kinase alpha-1 (Homo sapiens, UniProt Q15418). Briefly: Inhibition of MAPKAP-K1a.
The target in data set [9] is MAP kinase-activated protein kinase 2 (Homo sapiens, UniProt P49137). Briefly: Inhibition of MAPKAP-K2.
The target of data set [10] is Ribosomal protein S6 kinase alpha-5 (Homo sapiens, UniProt O75582). Briefly: Inhibition of MSK1.
For data set [11], the target named is T3, MAP kinase-activated protein kinase 5 (Homo sapiens, UniProt Q8IW41).
T3 sequence (Q8IW41 whole entry): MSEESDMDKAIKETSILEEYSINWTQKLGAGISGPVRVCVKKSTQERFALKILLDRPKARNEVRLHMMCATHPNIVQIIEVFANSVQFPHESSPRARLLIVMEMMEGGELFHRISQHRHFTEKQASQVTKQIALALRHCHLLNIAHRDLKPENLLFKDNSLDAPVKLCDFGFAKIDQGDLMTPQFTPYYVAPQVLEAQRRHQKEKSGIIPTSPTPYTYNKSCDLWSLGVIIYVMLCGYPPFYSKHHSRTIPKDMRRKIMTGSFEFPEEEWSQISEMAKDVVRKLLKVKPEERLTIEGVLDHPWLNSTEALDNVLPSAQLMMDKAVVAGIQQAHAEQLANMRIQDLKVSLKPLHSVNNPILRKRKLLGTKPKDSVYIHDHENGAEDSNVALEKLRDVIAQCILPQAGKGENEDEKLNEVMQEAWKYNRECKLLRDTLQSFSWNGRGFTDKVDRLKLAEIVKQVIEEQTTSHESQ
Briefly: Inhibition of PRAK.

Data set [12] concerns the target Protein kinase C alpha type (Homo sapiens, UniProt P17252). Briefly: Inhibition of PKCalpha.
The nature of data set [13]: Inhibition of PKC.
The target in data set [14] is T4, Serine/threonine-protein kinase Sgk1 (Homo sapiens, UniProt O00141).
T4 sequence (O00141 whole entry): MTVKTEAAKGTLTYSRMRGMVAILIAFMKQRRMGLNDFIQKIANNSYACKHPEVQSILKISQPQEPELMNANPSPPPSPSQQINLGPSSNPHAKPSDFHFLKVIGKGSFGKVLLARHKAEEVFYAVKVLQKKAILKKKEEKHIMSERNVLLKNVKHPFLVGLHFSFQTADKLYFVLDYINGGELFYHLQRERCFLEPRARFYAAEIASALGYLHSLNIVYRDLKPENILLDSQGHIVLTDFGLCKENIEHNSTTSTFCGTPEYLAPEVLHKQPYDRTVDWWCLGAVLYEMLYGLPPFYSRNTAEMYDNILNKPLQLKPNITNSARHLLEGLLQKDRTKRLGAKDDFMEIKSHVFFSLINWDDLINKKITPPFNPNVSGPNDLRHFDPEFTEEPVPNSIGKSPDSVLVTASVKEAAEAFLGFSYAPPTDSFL
Briefly: Inhibition of SGK.

For data set [15], the target named is RAC-alpha serine/threonine-protein kinase (Homo sapiens, UniProt P31749). The data set is described as follows: Inhibition of PKBalpha.
Data set [16] concerns the target Ribosomal protein S6 kinase (P70S6K) (Homo sapiens, UniProt P23443+Q9UBS0). Briefly: Inhibition of P70S6K. In kind it is protein-complex assay.
Data set [17] concerns the target Glycogen synthase kinase-3 beta (Homo sapiens, UniProt P49841). The data set is described as follows: Inhibition of GSK3-beta.
Data set [18] addresses Rho-associated protein kinase 2 (Homo sapiens, UniProt O75116). The data set is described as follows: Inhibition of ROCK2.
The target of data set [19] is AMP-activated protein kinase, AMPK. The data set is described as follows: Inhibition of AMPK. In kind it is protein-complex assay.
Data set [20] has as its target T5, Serine/threonine-protein kinase Chk1 (Homo sapiens, UniProt O14757).
T5 sequence (O14757 whole entry): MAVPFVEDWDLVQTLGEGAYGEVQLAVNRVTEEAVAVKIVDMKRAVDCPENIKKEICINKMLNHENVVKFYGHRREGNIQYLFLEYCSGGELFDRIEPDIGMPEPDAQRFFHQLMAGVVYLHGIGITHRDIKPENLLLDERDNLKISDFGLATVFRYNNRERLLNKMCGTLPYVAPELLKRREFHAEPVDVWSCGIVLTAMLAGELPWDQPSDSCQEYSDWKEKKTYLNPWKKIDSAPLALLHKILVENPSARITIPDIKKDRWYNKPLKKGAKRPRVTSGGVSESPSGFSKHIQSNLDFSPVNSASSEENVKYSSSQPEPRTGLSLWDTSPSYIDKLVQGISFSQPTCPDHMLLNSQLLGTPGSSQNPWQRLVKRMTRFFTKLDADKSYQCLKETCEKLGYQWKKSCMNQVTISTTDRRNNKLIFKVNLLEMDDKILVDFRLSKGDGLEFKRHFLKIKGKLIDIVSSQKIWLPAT
The data set is described as follows: Inhibition of CHK1.

Another data set has as its target Casein kinase II (Homo sapiens, UniProt P19784+P67870+P68400). Briefly: Inhibition of CK2. The data set is classed as protein-complex assay.
The target in data set [21] is Tyrosine-protein kinase Lck (Homo sapiens, UniProt P06239). Briefly: Inhibition of Lck.
Data set [22] addresses Tyrosine-protein kinase CSK (Homo sapiens, UniProt P41240). The data set is described as follows: Inhibition of CSK.
For data set [23], the target named is Cyclin-dependent kinase 2 (Homo sapiens, UniProt P24941). The data set is described as follows: Inhibition of CDK2.
Data set [24] can be described thus: Inhibition of PI3K.
In data set [25] the target is Dual specificity tyrosine-phosphorylation-regulated kinase 1A (Homo sapiens, UniProt Q13627). Briefly: Inhibition of DYRK1a.
Data set [26] in a line: Inhibition of phosphorylase kinase.
For data set [27], the target named is Mitogen-activated protein kinase 1 (Homo sapiens, UniProt P28482). Briefly: Inhibition of ERK2.
Data set [28] can be described thus: Permeability from apical to basolateral side of Caco-2 cell membrane. The data set is classed as ADME, cell-based. The settings on record: human. On the technique in general: Caco-2 monolayers are a common model of the intestinal barrier.
The nature of data set [29]: Volume of distribution in rat. The data set is classed as ADME, organism-based. Conditions: in vivo, read-out: Vdss.
The nature of data set [30]: Bioavailability in rat. In kind it is ADME, organism-based. Conditions: in vivo.
Data set [31] in a line: Volume of distribution in monkey. In kind it is ADME, organism-based, Macaca mulatta. The settings on record: rhesus monkey, in vivo; read-out: Vdss.
Data set [32] in a line: Bioavailability in monkey. In kind it is ADME, organism-based, Macaca mulatta. Conditions: rhesus monkey, in vivo.
Data set [33] has as its target T1, hERG (KCNH2). The data set is described as follows: Inhibition of hERG channel current in HEK293 cells at 1 uM. In kind it is toxicity, cell-based. Conditions: HEK293 cells that express hERG.
The species named for data set [34] is Rattus norvegicus. The data set is described as follows: Inhibition of LPS-induced TNFalpha release in rat. In kind it is functional.
A short description of data set [35]: Permeability from basolateral to apical side of Caco-2 cell membrane. The settings on record: human. The data set is classed as ADME, cell-based.

As a reminder, the solubility is the dissolved amount per volume that the medium holds. For orientation: IC50 means the concentration at which inhibition is half-maximal. As usually defined, the inhibition is the percentage by which the read-out fell short of the control. Broadly, the inhibition in vivo is the drop in the measured response relative to a control, in per cent. One may read the Papp A→B as the apparent permeability from the apical to the basolateral side of a cell layer. The bioavailability is dose-corrected exposure relative to a reference, in per cent. Usually ED50 stands for the midpoint of the dose-response relation. The Papp B→A is how fast a substance crosses the layer from the basolateral side.

Sequence of Mitogen-activated protein kinase 14 (Q16539 whole entry): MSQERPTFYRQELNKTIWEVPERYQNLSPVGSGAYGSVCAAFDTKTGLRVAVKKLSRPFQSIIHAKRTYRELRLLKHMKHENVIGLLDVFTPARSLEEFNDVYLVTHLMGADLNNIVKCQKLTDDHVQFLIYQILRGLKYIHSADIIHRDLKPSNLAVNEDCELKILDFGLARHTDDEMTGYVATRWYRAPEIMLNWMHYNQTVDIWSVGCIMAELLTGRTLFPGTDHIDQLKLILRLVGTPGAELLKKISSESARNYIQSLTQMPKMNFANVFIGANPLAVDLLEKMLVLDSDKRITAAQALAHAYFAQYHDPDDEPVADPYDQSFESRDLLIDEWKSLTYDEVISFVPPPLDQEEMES
T1 sequence (Q12809 whole entry): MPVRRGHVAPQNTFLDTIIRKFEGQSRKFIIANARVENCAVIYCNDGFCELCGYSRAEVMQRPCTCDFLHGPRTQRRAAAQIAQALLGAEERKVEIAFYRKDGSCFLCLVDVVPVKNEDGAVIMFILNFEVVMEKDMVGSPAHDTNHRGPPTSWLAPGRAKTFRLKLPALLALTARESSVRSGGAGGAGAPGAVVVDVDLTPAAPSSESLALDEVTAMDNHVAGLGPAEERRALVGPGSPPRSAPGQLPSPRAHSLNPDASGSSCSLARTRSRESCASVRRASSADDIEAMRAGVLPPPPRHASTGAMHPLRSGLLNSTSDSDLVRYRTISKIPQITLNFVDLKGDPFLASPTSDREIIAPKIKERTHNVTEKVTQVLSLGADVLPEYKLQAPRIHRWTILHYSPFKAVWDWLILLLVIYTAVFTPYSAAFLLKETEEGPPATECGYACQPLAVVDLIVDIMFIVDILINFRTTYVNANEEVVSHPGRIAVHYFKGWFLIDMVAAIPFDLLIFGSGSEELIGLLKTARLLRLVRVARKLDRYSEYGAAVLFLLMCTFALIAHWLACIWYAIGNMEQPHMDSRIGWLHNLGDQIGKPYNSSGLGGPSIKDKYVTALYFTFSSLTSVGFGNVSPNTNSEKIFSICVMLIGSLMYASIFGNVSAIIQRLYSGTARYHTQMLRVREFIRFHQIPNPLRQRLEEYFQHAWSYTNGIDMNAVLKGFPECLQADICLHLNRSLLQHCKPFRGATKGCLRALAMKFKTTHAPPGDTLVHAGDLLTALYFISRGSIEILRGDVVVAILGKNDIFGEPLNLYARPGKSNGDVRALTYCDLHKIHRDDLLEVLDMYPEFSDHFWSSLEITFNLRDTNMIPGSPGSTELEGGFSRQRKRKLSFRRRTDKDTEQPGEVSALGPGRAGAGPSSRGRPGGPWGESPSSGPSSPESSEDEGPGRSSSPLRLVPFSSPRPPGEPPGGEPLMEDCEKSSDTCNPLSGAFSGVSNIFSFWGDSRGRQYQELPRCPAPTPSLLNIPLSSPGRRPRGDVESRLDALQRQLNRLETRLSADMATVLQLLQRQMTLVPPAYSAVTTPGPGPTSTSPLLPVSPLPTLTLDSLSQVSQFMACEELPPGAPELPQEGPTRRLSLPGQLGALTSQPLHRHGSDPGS
Sequence of Glycogen synthase kinase-3 beta (P49841 whole entry): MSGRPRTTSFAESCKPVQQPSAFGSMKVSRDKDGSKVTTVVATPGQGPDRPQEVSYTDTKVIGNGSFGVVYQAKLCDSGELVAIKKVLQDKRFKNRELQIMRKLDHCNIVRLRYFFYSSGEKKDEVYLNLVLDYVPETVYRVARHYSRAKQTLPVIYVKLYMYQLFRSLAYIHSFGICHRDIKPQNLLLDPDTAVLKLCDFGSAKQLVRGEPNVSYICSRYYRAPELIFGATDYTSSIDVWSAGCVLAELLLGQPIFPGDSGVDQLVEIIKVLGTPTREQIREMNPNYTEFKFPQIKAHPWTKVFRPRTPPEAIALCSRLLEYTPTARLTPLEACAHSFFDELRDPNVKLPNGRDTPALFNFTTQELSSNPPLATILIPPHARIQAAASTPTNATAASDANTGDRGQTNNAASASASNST
Sequence of RAC-alpha serine/threonine-protein kinase (P31749 whole entry): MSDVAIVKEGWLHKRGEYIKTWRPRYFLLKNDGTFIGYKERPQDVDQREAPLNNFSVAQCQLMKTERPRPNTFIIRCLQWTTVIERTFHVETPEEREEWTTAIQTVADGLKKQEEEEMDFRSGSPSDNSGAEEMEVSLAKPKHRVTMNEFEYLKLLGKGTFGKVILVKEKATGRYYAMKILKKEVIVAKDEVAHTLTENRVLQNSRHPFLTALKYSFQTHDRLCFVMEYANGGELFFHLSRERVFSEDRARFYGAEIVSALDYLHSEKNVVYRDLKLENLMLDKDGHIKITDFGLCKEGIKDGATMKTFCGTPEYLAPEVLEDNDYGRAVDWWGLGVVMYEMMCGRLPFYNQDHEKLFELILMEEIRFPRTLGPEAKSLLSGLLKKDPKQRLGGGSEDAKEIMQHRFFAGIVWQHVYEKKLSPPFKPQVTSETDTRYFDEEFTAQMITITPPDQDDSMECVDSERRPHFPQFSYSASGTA
Sequence of Ribosomal protein S6 kinase alpha-5 (O75582 whole entry): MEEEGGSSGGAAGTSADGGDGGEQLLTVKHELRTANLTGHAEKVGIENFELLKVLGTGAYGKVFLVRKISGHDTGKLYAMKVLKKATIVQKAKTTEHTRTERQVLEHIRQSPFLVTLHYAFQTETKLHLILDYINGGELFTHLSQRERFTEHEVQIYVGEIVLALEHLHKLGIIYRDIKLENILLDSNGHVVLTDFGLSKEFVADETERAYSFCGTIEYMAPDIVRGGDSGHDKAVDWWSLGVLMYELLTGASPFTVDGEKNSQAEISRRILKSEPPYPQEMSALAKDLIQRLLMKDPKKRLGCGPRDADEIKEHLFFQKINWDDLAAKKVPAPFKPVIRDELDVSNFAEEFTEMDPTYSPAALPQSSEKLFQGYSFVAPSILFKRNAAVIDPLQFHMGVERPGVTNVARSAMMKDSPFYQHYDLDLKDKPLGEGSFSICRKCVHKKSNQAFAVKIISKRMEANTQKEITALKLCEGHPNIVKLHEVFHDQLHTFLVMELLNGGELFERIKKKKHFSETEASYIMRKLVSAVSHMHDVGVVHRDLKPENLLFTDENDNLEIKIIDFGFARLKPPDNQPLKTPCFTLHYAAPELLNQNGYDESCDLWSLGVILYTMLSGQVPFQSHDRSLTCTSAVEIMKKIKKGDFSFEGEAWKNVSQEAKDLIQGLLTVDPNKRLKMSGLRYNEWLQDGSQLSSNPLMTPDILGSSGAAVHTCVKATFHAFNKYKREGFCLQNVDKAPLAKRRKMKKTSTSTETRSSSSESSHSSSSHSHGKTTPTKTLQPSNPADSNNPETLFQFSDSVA
Sequence of Ribosomal protein S6 kinase (P70S6K) (Q9UBS0 whole entry): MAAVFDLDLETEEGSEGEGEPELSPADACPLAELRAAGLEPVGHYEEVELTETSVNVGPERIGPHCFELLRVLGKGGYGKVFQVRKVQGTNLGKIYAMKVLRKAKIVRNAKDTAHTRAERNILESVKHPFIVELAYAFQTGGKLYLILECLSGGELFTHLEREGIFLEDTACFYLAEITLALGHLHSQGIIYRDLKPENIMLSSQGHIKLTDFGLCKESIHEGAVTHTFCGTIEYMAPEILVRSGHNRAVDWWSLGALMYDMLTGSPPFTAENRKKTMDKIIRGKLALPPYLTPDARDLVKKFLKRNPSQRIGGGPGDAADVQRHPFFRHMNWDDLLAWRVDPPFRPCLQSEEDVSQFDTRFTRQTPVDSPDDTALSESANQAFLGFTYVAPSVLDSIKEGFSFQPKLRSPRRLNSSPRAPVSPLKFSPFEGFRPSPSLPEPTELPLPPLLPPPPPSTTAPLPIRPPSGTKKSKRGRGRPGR
Sequence of Ribosomal protein S6 kinase (P70S6K) (P23443 whole entry): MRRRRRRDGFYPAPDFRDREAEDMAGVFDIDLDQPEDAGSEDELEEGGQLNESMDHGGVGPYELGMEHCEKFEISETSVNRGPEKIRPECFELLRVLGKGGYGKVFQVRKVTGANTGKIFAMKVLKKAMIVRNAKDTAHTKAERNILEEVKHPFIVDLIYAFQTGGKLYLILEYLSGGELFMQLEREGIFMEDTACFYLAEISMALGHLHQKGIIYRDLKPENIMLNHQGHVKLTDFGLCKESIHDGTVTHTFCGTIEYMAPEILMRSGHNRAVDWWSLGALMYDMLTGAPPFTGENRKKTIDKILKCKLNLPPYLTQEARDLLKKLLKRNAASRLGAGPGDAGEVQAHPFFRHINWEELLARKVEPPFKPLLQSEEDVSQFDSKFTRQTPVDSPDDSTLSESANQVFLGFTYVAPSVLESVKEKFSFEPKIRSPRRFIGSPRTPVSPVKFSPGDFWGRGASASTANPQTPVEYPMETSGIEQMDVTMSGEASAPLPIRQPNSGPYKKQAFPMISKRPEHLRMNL
Sequence of Tyrosine-protein kinase Lck (P06239 whole entry): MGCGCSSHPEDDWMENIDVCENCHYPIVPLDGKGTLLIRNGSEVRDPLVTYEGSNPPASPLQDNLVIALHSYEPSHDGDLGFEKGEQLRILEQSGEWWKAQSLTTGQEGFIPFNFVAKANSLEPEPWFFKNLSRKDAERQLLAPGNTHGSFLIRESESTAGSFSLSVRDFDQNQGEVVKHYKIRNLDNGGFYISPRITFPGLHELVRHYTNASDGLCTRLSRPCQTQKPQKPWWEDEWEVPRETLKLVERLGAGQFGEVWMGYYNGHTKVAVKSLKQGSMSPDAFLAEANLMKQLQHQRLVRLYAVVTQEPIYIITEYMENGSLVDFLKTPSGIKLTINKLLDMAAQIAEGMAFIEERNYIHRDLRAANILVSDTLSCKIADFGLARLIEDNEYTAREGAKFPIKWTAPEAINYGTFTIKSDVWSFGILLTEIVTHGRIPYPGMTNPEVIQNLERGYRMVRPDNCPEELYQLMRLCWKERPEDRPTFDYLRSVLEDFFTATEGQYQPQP

As for `CC(C)c1nnc2ccc(-c3ocnc3-c3ccc(F)cc3Cl)cn12`, the solubility in data set [1] turned out to be 81 µg/mL (≈ 227 µM). For the same compound, the IC50 in the data set on Monocyte is 0.0245 µM; in [4], over 10 µM; in data set [5], over 10 µM; in data set [6], 0.0025 µM; in the data set listed under Homo sapiens it was 0.38 µM; in data set [7], over 10 µM. Further, the IC50 in data set [8], in [9], in data set [10], in data set [11], in [12] and in data set [13] was over 10 µM each time. Also, the IC50 in data set [14], in data set [15], in data set [16], in data set [17], in data set [18] and in [19] was over 10 µM throughout. Further, the IC50 (in [20]; at Casein kinase II; in data set [21]; in data set [22]; in data set [23]; in data set [24]) was over 10 µM in each case. Also, the IC50 in data set [25], in [26] and in data set [27] was over 10 µM in each case. For the same compound, at hERG (KCNH2) [2], the inhibition at 3 µM was determined as 0%. The inhibition in vivo at 3 mg/kg in the data set with Rattus norvegicus [3] came to 94%.
In turn, `CC(C)c1nnc2ccc(-c3ocnc3-c3cc(F)ccc3F)cn12` registered a solubility in data set [1] of 8.1 µg/mL (≈ 23.8 µM). Moreover, the results for the IC50 (in the data set on Monocyte; in data set [6]; in the data set listed under Homo sapiens) were 0.025 µM, 0.0058 µM and 0.259 µM, respectively. In addition, the Papp A→B in data set [28] worked out at 43 ×10⁻⁶ cm/s. Also, the Vd was 0.8 L/kg in data set [29] and 1.3 L/kg in data set [31]. The bioavailability stood at 58% in data set [30] and 40% in data set [32]. This compound also yielded an inhibition at 1 µM against hERG (KCNH2) [33] of 0%. This compound displayed an ED50 in the data set filed under Rattus norvegicus [34] of 0.3 mg/kg. In addition, the Papp B→A in data set [35] came to 29 ×10⁻⁶ cm/s.
